Measured values taken from patent US6841718B2 (priority 2000, dated 2005).

System: bacteria, yeast, algal and fungal spores, and invertebrate larvae
Experiment: attachment of organisms

## O=C(O)C=Cc1ccc(OS(=O)(=O)O)cc1 [Zosteric acid, para-(sulphooxy) cinnamic acid]
  attachment of a wide range of organisms: inhibits attachment
